Reference: patent publication US20060241026A1, “Novel cyclic peptides and use thereof as anti-microbial agents” (priority 2002, published 2006)
In brackets after ≈: the same amount, converted by molar mass. Read-outs that look alike come from different tables or passages of the source. Positions of bridges follow the written chain, without caps; N, C: chain ends. Residues, ends and D or L forms follow the SMILES beside them. No end group written: not given here.

What was measured:
Assay type in all cases: cell-based
[1] = tested on: Fusarium oxysporum; conditions: 24 h
Experimental: (§1) The anti-fungal activity was determined by calculating the MIC in a growth inhibition assay for the shrimp parasite fungus Fusarium oxysporum, in liquid phase, according to the protocol described by FELHBAM et al. (J. Biol. Chem., 1994, 269:33159-63). Doubling dilutions of each peptide were realized in the wells of a Microtest plate in a volume of 10 μl. 90 μl of spores resuspended in potato dextrose broth medium (DIFCO) at a final concentration of 10^4 spores/ml were added to each well. The growth inhibition was measured after incubation for 24 h at 25° C. in the dark, by observation under an optical microscope and measurement of the increase in OD at 600 nm. The value of the MIC corresponds to the first well for which the optical density had not increased.

[2] = tested on: Staphylococcus aureus
Experimental: (§2) The activity of the synthetic peptides was tested with respect to the Gram+ bacteria Mycrocossus luteus, Staphylococcus aureus, Staphylococcus epidermidis and Bacillus megaterium. The activities were determined according to the protocol described by HANCOCK et al. (http://www.interchg.ubc.ca/bobh/methods.htm)
(§3) The MIC was determined for each peptide by inhibition of growth in liquid medium. Doubling dilution of peptide was realized in the wells of a Microtest plate in a volume of 10 μl. The bacteria were grown in MUELLER HINTON BROTH (MHB, Difco) liquid medium. During the exponential growth phase, a solution with an optical density of 0.001 at 600 nm was produced, and 100 μl of this suspension were added to each well. The incubation lasted 24 h at 30° C., and the optical densities of each well were then measured at 600 nm. The value of the MIC corresponds to the first well for which the optical density had not changed.
(§4) The dishes were incubated for 24 h at 30° C. The value of the MBC corresponds to the lowest concentration of the peptide for which no colony developed.

[3] = tested on: Bacillus megaterium; conditions: Bacillus
Experimental: as §2, §3, §4

[4] = tested on: Micrococcus luteus
Experimental: as §2, §3, §4

[5] = tested on: Staphylococcus epidermidis
Experimental: as §2, §3, §4

[6] = tested on: Gram+ and Gram− bacteria and a filamentous fungus; experiment: Antibiotic tests on Gram+ and Gram- bacteria and on a filamentous fungus, summary in words; conditions: compared with the native molecule or the minimal loop
Experimental: as §2, §3, §4, §1
Using the 3-D structure of the native molecule as a basis, said molecule was fractionated into 17 elements (table I). All these fragments were synthesized and their activities were assayed using antibiotic tests on Gram+ and Gram− bacteria and on a filamentous fungus. The minimum inhibitory concentration (MIC) and minimum […] concentration (MBC) of each peptide were thus determined and were compared with those of the native molecule.

[7] = tested on: Micrococcus lysodeikticus
Experimental: as §3, §4

CC(C)C[C@@H]1NC(=O)[C@H](CCCNC(=N)N)NC(=O)[C@H](Cc2c[nH]cn2)NC(=O)[C@H](Cc2c[nH]c3ccccc23)NC(=O)CNC(=O)CNC(=O)[C@@H](NC(=O)[C@H](Cc2ccc(O)cc2)NC(=O)CNC(=O)CNC(=O)[C@@H](N)CO)CSSC[C@@H](C(=O)O)NC(=O)[C@H](CCCNC(=N)N)NC1=O [SEQ ID NO:4, SGGYC^(S)GGWHRLRS^(S)] (H-SGGYCGGWHRLRC-OH; disulfide 5-13; N-terminus and C-terminus assumed)
Fusarium oxysporum MIC [1]: 41 µM
Staphylococcus aureus MBC [2]: >75 µM
Staphylococcus aureus MIC [2]: 67 µM
Bacillus megaterium MBC [3]: >75 µM
Bacillus megaterium MIC [3]: 52 µM
Micrococcus luteus MBC [4]: 13 µM
Micrococcus luteus MIC [4]: 26 µM
MIC on M leuteus ([4]; 24 h): 67 µM (≈ 97.1 µg/mL)
Staphylococcus epidermidis MBC [5]: >75 µM
Staphylococcus epidermidis MIC [5]: 38 µM

CC(C)C[C@@H]1NC(=O)[C@H](CCCNC(=N)N)NC(=O)[C@H](Cc2c[nH]cn2)NC(=O)[C@H](Cc2c[nH]c3ccccc23)NC(=O)CNC(=O)CNC(=O)[C@H](CO)NC(=O)[C@H](Cc2ccc(O)cc2)NC(=O)CNC(=O)CNC(=O)[C@@H](N)CSSC[C@@H](C(=O)NCC(=O)O)NC(=O)[C@H](CCCNC(=N)N)NC(=O)[C@H](Cc2ccc(O)cc2)NC(=O)[C@H](CO)NC(=O)[C@H]([C@@H](C)O)NC(=O)[C@H](CO)NC(=O)[C@H](CCCNC(=N)N)NC1=O [SEQ ID NO:5, C^(S)GGYSGGWHRLRSTSYRC^(S)G] (H-CGGYSGGWHRLRSTSYRCG-OH; disulfide 1-18; N-terminus and C-terminus assumed)
Fusarium oxysporum MIC [1]: 18.5 µM
Staphylococcus aureus MBC [2]: >75 µM
Staphylococcus aureus MIC [2]: 14 µM
Bacillus megaterium MBC [3]: 75 µM
Bacillus megaterium MIC [3]: 24 µM
Micrococcus luteus MBC [4]: 18 µM
Micrococcus luteus MIC [4]: 18 µM
MBC on M leuteus ([4]; 24 h): 13 µM (≈ 27.3 µg/mL)
Staphylococcus epidermidis MBC [5]: >75 µM
Staphylococcus epidermidis MIC [5]: 35 µM

CC[C@H](C)[C@@H]1NC(=O)[C@H](CO)NC(=O)[C@H](CCCCN)NC(=O)[C@@H](NC(=O)[C@H](Cc2c[nH]cn2)NC(=O)[C@H](CCCNC(=N)N)NC(=O)[C@H](Cc2c[nH]cn2)NC(=O)[C@H](CO)NC(=O)[C@H](CCC(N)=O)NC(=O)[C@H](Cc2ccc(O)cc2)NC(=O)[C@H](CC(N)=O)NC(=O)[C@H](CC(N)=O)NC(=O)[C@@H]2CCCN2)CSSC[C@@H](C(=O)O)NC(=O)[C@H](CCCNC(=N)N)NC(=O)CNC(=O)[C@@H]2CCCN2C1=O [SEQ ID NO:11, PNNYQSHRHCKSIPGRC] (H-PNNYQSHRHCKSIPGRC-OH; disulfide 10-17; N-terminus and C-terminus assumed)
MIC on M leuteus ([4]; 24 h): >75 µM

CC[C@H](C)[C@@H]1NC(=O)[C@H](CO)NC(=O)[C@H](CCCCN)NC(=O)[C@@H](N)CSSC[C@@H](C(=O)NCC(=O)O)NC(=O)[C@H](CCCNC(=N)N)NC(=O)CNC(=O)[C@@H]2CCCN2C1=O [SEQ ID NO:15, CKSIPGRCG] (H-CKSIPGRCG-OH; disulfide 1-8; N-terminus and C-terminus assumed)
anti-microbial activity (in words) [6]: show no activity
MIC on M leuteus ([4]; 24 h): >75 µM

C[C@@H](O)[C@@H]1NC(=O)[C@H](CO)NC(=O)[C@H](CO)NC(=O)[C@H](Cc2ccc(O)cc2)NC(=O)CNC(=O)CNC(=O)[C@@H](N)CSSC[C@@H](C(=O)NCC(=O)O)NC(=O)[C@H](CCCNC(=N)N)NC(=O)[C@H](Cc2ccc(O)cc2)NC(=O)[C@H](CO)NC1=O [SEQ ID NO:16, CGGYSSTSYRCG] (H-CGGYSSTSYRCG-OH; disulfide 1-11; N-terminus and C-terminus assumed)
anti-microbial activity (in words) [6]: do not comprise any intrinsic activity
MIC on M leuteus ([4]; 24 h): >75 µM

CC(C)C[C@@H]1NC(=O)[C@H](CCCNC(=N)N)NC(=O)[C@H](CCCCN)NC(=O)[C@H](Cc2c[nH]c3ccccc23)NC(=O)CNC(=O)CNC(=O)[C@@H](N)CSSC[C@@H](C(=O)O)NC(=O)[C@H](CCCNC(=N)N)NC1=O [SEQ ID NO:19, C^(S)GGWKRLRC^(S)] (H-CGGWKRLRC-OH; disulfide 1-9; N-terminus and C-terminus assumed)
Micrococcus lysodeikticus MIC [7]: 13 µM
Staphylococcus aureus MBC [2]: 20 µM
Staphylococcus aureus MIC [2]: 33 µM

N=C(N)NCCC[C@@H]1NC(=O)[C@H](CCCCN)NC(=O)[C@H](CCCNC(=N)N)NC(=O)[C@H](CCCCN)NC(=O)[C@H](Cc2c[nH]c3ccccc23)NC(=O)CNC(=O)CNC(=O)[C@@H](N)CSSC[C@@H](C(=O)O)NC1=O [SEQ ID NO:20, C^(S)GGWKRKRC^(S)] (H-CGGWKRKRC-OH; disulfide 1-9; N-terminus and C-terminus assumed)
Micrococcus lysodeikticus MIC [7]: 8 µM
Staphylococcus aureus MBC [2]: 16 µM
Staphylococcus aureus MIC [2]: 23 µM

N=C(N)NCCC[C@@H]1NC(=O)[C@H](CCCCN)NC(=O)[C@H](CCCNC(=N)N)NC(=O)[C@H](CCCCN)NC(=O)[C@H](Cc2c[nH]c3ccccc23)NC(=O)[C@H](CCCCN)NC(=O)[C@H](CCCCN)NC(=O)[C@@H](N)CSSC[C@@H](C(=O)O)NC1=O [SEQ ID NO:21, C^(S)KKWKRKRC^(S)] (H-CKKWKRKRC-OH; disulfide 1-9; N-terminus and C-terminus assumed)
Micrococcus lysodeikticus MBC ([7]; Table III): 9.9 µM
Micrococcus lysodeikticus MIC ([7]; Table III): 6 µM
Staphylococcus aureus MBC ([2]; Table III): 9.9 µM
Staphylococcus aureus MIC ([2]; Table III): 4.4 µM
Staphylococcus epidermidis MIC ([5]; Table III): 6.8 µM

N=C(N)NCCC[C@@H]1NC(=O)[C@H](CCCCN)NC(=O)[C@H](CCCNC(=N)N)NC(=O)[C@H](CCCCN)NC(=O)[C@H](Cc2c[nH]c3ccccc23)NC(=O)[C@H](CCCCN)NC(=O)[C@@H](N)CSSC[C@@H](C(=O)O)NC1=O [SEQ ID NO:22, C^(S)KWKRKRC^(S)] (H-CKWKRKRC-OH; disulfide 1-8; N-terminus and C-terminus assumed)
Micrococcus lysodeikticus MBC ([7]; Table III): 14.8 µM
Micrococcus lysodeikticus MIC ([7]; Table III): 14.8 µM
Staphylococcus aureus MBC ([2]; Table III): 14.8 µM
Staphylococcus aureus MIC ([2]; Table III): 6.6 µM

N=C(N)NCCC[C@@H]1NC(=O)[C@H](CCCCN)NC(=O)[C@H](CCCNC(=N)N)NC(=O)[C@H](CCCCN)NC(=O)[C@H](Cc2c[nH]c3ccccc23)NC(=O)[C@@H](N)CSSC[C@@H](C(=O)O)NC1=O [SEQ ID NO:23, C^(S)WKRKRC^(S)] (H-CWKRKRC-OH; disulfide 1-7; N-terminus and C-terminus assumed)
Micrococcus lysodeikticus MIC ([7]; Table III): 22.2 µM
anti-microbial activity (in words) [6]: weaker
Staphylococcus aureus MBC ([2]; Table III): 22.2 µM
Staphylococcus aureus MIC ([2]; Table III): 22.2 µM

N=C(N)NCCC[C@@H]1NC(=O)[C@H](CCCCN)NC(=O)[C@H](Cc2c[nH]c3ccccc23)NC(=O)[C@@H](N)CSSC[C@@H](C(=O)O)NC(=O)[C@H](CCCCN)NC1=O [SEQ ID NO:24, C^(S)WKRKC^(S)] (H-CWKRKC-OH; disulfide 1-6; N-terminus and C-terminus assumed)
Micrococcus lysodeikticus MIC ([7]; Table III): >50 µM
anti-microbial activity (in words) [6]: does not exhibit any significant biological activity
Staphylococcus aureus MBC ([2]; Table III): >50 µM
Staphylococcus aureus MIC ([2]; Table III): >50 µM

GFGSPNNYQS [SEQ ID NO:8, GFGSPNNYQS]
MIC on M leuteus ([4]; 24 h): >75 µM

GFGSPNNYQSHRHSKSIPGR [SEQ ID NO:9]
MIC on M leuteus ([4]; 24 h): >75 µM

NYQSHRHSKS [SEQ ID NO:13, NYQSHRHSKS]
MIC on M leuteus ([4]; 24 h): >75 µM

PNNYQSHRHSKSIPGRGR [SEQ ID NO:10, PNNYQSHRHSKSIPGRGR]
MIC on M leuteus ([4]; 24 h): >75 µM

PNNYQSHRHSKSIPGRS [SEQ ID NO:12, PNNYQSHRHSKSIPGRS]
MIC on M leuteus ([4]; 24 h): >75 µM

RLRSTSYRSG [SEQ ID NO:18, RLRSTSYRSG]
MIC on M leuteus ([4]; 24 h): >75 µM

SGGWHRLRS [SEQ ID NO:17, SGGWHRLRS]
anti-microbial activity (in words) [6]: devoid of activity
MIC on M leuteus ([4]; 24 h): >75 µM

SKSIPGRSG [SEQ ID NO:14, SKSIPGRSG]
anti-microbial activity (in words) [6]: show no activity
MIC on M leuteus ([4]; 24 h): >75 µM
